Reference: publication PMC5307958 (Scientific Reports, 2017)
“Also recorded” adds a separate entry of the source. Where a SMILES comes first, the peptide text is derived from it. Bridges are numbered along the chain shown (N, C = ends).

Tests used:
[1] = system: auditory nerve and generators caudal to the IC; test: Auditory brainstem responses (ABR); type: in vivo, mouse
Description: The temperature was maintained near 25 °C.
ABR recordings were acquired after the mice were anesthetized with ketamine (120 mg/kg) and xylazine (10 mg/kg) I.P., and respiration was monitored throughout to determine when additional supplemental doses were needed. Body temperature was kept constant at 37 °C using a feedback controlled heating pad (Physitemp TCAT2-LV Controller, Clifton, NJ). Stimuli and recordings were generated digitally and controlled using a TDT RZ6 Multi-I/O Processor and their BioSig/SigGen software. Acoustic signals were played through a multi-field (MF1) magnetic speaker (TDT, Alachua, FL) with a total harmonic distortion < = 1% from 1 kHz to 50 kHz, centered 0° azimuth in regards to the animal at a distance of 10 cm from the ear pinna. Tone bursts were presented at frequencies of 6, 12, 16, 20, 24, and 36 kHz (3 ms duration, 1 ms rise/fall time, alternating polarity) at a rate of 29 per second, attenuated in 5 dB steps from 80 dB SPL to 15 dB below threshold or 5 dB SPL, whichever was lower. Threshold was determined by visual inspection as the lowest intensity level which produced a defined wave in both replicates. All signals were calibrated using a Larsen Davis preamplifier, model 2221, with a 1/4″ microphone and a Larson Davis CAL200 Precision Acoustic Calibrator (PCB Piezotronics, Inc., Depew, NY). ABR recordings were acquired using a TDT RA4LI low-impedance digital headstage and RA4PA Medusa preamp with the active (noninverting) electrode inserted at the vertex, the reference (inverting) electrode below the left ear, and the ground electrode below the right ear. The responses were amplified (20×), filtered (300 Hz–3 kHz), and averaged using BioSig software and the System III hardware (TDT) data-acquisition system. A total of 256 tone burst signal and 150 GIN signal recordings were replicated for each acquisition, and muscle artifacts exceeding 7 μV were rejected from the averaged response. All recordings took place in a soundproof booth lined with echo-attenuating acoustic foam. ABR waveforms were analyzed using a custom MatLab program that automatically determined peak latencies and amplitudes in combination with secondary verification by an experimenter blind to the treatment group.

5HT 1B = test: Competition radioligand binding (NIMH PDSP); settings: radioligand GR127543, measured 4 times
Description: (§1) LS3 was screened against a comprehensive panel of CNS-based proteins. Detailed protocols can be found within the US National Institute of Mental Health Psychoactive Drug Screening Program (NIMH PDSP) Assay Protocol Book (version II), by B. L. Roth, March 2013 (available at: http://pdsp.med.unc.edu/PDSP%20Protocols%20II%202013-03-28.pdf). […] Radioactivity in the presence of the LS3 (sample) was calculated with the following equation and expressed as a percent inhibition: % inhibition = (sample CPM – non-specific CPM)/Total CPM – non-specific CPM) × 100. Total binding was measured with no competing ligand. Non-specific binding was measured in the presence of reference compound. The % inhibition by LS3 was measured 4 times for each receptor.

BZP rat brain site = test: Competition radioligand binding (NIMH PDSP); settings: radioligand Flunitrazepam, measured 4 times
Description: as §1

Sigma 2 = test: Competition radioligand binding (NIMH PDSP); settings: radioligand DTG, measured 4 times
Description: as §1

SERT = test: Competition radioligand binding (NIMH PDSP); settings: radioligand Citalopram, measured 4 times
Description: as §1

Opioid MOR = test: Competition radioligand binding (NIMH PDSP); settings: radioligand DAMGO, measured 4 times
Description: as §1

Opioid DOR = test: Competition radioligand binding (NIMH PDSP); settings: radioligand DADLE, measured 4 times
Description: as §1

GABAA = test: Competition radioligand binding (NIMH PDSP); settings: radioligand Muscimol, measured 4 times
Description: as §1

Histamine H1 = test: Competition radioligand binding (NIMH PDSP); settings: radioligand Pyrilamine, measured 4 times
Description: as §1

Adrenergic Alpha2A = test: Competition radioligand binding (NIMH PDSP); settings: radioligand Clonidine, measured 4 times
Description: as §1

NET = test: Competition radioligand binding (NIMH PDSP); settings: radioligand Nisoxetine, measured 4 times
Description: as §1

5HT 1A = test: Competition radioligand binding (NIMH PDSP); settings: radioligand 8-OH-DPAT, measured 4 times
Description: as §1

hERG = test: Competition radioligand binding (NIMH PDSP); settings: human, probe Dofetilide (radioligand), measured 4 times, read-out: % inhibition by 10 µM LS3
Description: as §1

5HT 2A = test: Competition radioligand binding (NIMH PDSP); settings: radioligand Ketanserin, measured 4 times
Description: as §1

Dopamine D1 = test: Competition radioligand binding (NIMH PDSP); settings: radioligand SCH233930, measured 4 times
Description: as §1

5HT 2B = test: Competition radioligand binding (NIMH PDSP); settings: radioligand LSD, measured 4 times
Description: as §1

Dopamine D2 = test: Competition radioligand binding (NIMH PDSP); settings: radioligand N-methylspiperone, measured 4 times
Description: as §1

Histamine H3 = test: Competition radioligand binding (NIMH PDSP); settings: radioligand α-methylhistamine, measured 4 times
Description: as §1

Adrenergic Alpha1A = test: Competition radioligand binding (NIMH PDSP); settings: radioligand Prazosin, measured 4 times
Description: as §1

mAcetylcholine M4 = test: Competition radioligand binding (NIMH PDSP); settings: radioligand QNB, measured 4 times
mAcetylcholine M1 = test: Competition radioligand binding (NIMH PDSP); settings: radioligand QNB, measured 4 times
33 mammalian CNS targets = test: NIMH-PDSP competition binding panel, all targets
Description: as §1

For `CC(C)C[C@@H]1NC(=O)CNC(=O)[C@H](CCCNC(=N)N)NC(=O)[C@H](CCCNC(=N)N)NC(=O)[C@@H](N)CSSC[C@@H](C(=O)O)NC(=O)[C@H](C(C)C)NC(=O)[C@H](CCC(N)=O)NC(=O)[C@H](C(C)C)NC1=O` [LS3] (H-CRRGLVQVC-OH; disulfide 1-9; N-terminus and C-terminus assumed), the “mean ABR thresholds” value ([1]; 4 hours post I.P. injection vs. baseline, tone bursts) was “No significant effect”, the “activity at cochlear BK channels” value ([1]; inferred from unaltered ABRs after systemic administration) was “not active at cochlear BK channels” and the “effect on ABRs / peripheral auditory processing” value ([1]; systemic (I.P.) administration) was “without altering peripheral auditory processing; also recorded: does not alter ABRs”. The “ABR peak 1 (P1) amplitude by intensity functions” value ([1]; systemic (I.P.) injection, 4 hrs vs. baseline, auditory nerve) was “unaffected; also recorded: Neither BK channel modulator reduced auditory nerve (P1)”, the “ABR peak 4 (P4) amplitude by intensity functions” value ([1]; systemic (I.P.) injection, 4 hrs vs. baseline, generators caudal to the IC (brainstem)) was “unaffected; also recorded: Neither BK channel modulator reduced auditory nerve (P1) or brainstem (P4) amplitudes” and the “% inhibition by 10 µM LS3” value (5HT 1B) was 2.8%. For the same compound, the “% inhibition by 10 µM LS3” value (BZP rat brain site) was 5.1%, the “% inhibition by 10 µM LS3” value (Sigma 2) was 24.3% and the “% inhibition by 10 µM LS3” value (SERT) was 0.1%. The “% inhibition by 10 µM LS3” value (Opioid MOR) was 2.2%, the “% inhibition by 10 µM LS3” value (Opioid DOR) was 1.9% and the “% inhibition by 10 µM LS3” value (GABAA) was 19.3%. The “% inhibition by 10 µM LS3” value (Histamine H1) was 14.8%, the “% inhibition by 10 µM LS3” value (Adrenergic Alpha2A) was 3.2% and the “% inhibition by 10 µM LS3” value (NET) was 6.7%. For the same compound, the “% inhibition by 10 µM LS3” value (5HT 1A) was 11.4%, the inhibition at 10 µM (hERG) was 21.2% and the “% inhibition by 10 µM LS3” value (5HT 2A) was 16.2%. For the same compound, the “% inhibition by 10 µM LS3” value (Dopamine D1) was 15.7%, the “% inhibition by 10 µM LS3” value (5HT 2B) was 3.2% and the “% inhibition by 10 µM LS3” value (Dopamine D2) was 20.9%. The “% inhibition by 10 µM LS3” value (Histamine H3) was 5.1%, the “% inhibition by 10 µM LS3” value (Adrenergic Alpha1A) was 11.3% and the “% inhibition by 10 µM LS3” value (mAcetylcholine M4) was 6.8%. For the same compound, the “% inhibition by 10 µM LS3” value (mAcetylcholine M1) was 12.6%, the “interaction with known ligand binding sites on 33 mammalian CNS targets” value (33 mammalian CNS targets; 10 microM LS3) was “does not have high affinity interactions” and the “inhibition of radioligand binding” value (33 mammalian CNS targets; 10 microM LS3, all 33 targets, printed 'substantially less than 50%', each measured 4 times) was “less than 50%”. For the same compound, the Ki (33 mammalian CNS targets; inferred from less than 50% inhibition at 10 microM LS3, array of CNS targets) was greater than 10 µM.
